From patent publication US20240158446A1, “CYCLIC COMPOUND HAVING SELECTIVE INHIBITORY ACTION ON KRAS OVER HRAS AND NRAS” (CHUGAI SEIYAKU KABUSHIKI KAISHA, priority 2021, published 2024)
Where a SMILES comes first, the peptide text is derived from it. Bridges are numbered along the chain shown (N, C = ends). [ ]: non-standard residue; d: D form. The star is where a group is joined. hPhe(3,5-F2-4-CF3) = N[C@@H](CCc1cc(F)c(C(F)(F)F)c(F)c1)C(=O)O; hPhe(3-Cl-4-CF3) = N[C@@H](CCc1ccc(C(F)(F)F)c(Cl)c1)C(=O)O; NPrPhe(4-CF3) = CCCN[C@@H](Cc1ccc(C(F)(F)F)cc1)C(=O)O; NEtPhe(4-Me) = CCN[C@@H](Cc1ccc(C)cc1)C(=O)O; NMeGly(cPent) = CN[C@H](C(=O)O)C1CCCC1; Pro(4,4-F2) = O=C(O)[C@@H]1CC(F)(F)CN1; NMeGly(cBu) = CN[C@H](C(=O)O)C1CCC1; NMeD = CN[C@@H](CC(=O)O)C(=O)O; Ac4c(3-oxa) = NC1(C(=O)O)COC1; NMeL = CN[C@@H](CC(C)C)C(=O)O; Morpholide = C1CN(*)CCO1; NMeA = CN[C@@H](C)C(=O)O; Ac5c = NC1(C(=O)O)CCCC1; Aze = O=C(O)[C@@H]1CCN1; NEtG = CCNCC(=O)O; Sar = CNCC(=O)O

How the values were obtained:
[1] = target: GDP-bound KRAS wild-type protein (Homo sapiens, UniProt P01116); test: Binding to KRAS by surface plasmon resonance (SPR), Single Cycle Kinetics; conditions: SPR Single Cycle Kinetics, GDP-bound KRAS wild-type protein, 1:1 binding model; read-out: KRAS KD
Chain of GDP-bound KRAS wild-type protein (P01116 whole entry): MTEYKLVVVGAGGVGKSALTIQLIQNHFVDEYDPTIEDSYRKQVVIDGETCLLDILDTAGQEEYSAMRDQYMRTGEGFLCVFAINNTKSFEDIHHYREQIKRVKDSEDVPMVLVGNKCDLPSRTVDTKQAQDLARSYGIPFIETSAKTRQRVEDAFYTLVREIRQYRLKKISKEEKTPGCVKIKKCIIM

[2] = target: GDP-bound NRAS wild-type protein (Homo sapiens, UniProt P01111); test: Binding to NRAS by surface plasmon resonance (SPR), Single Cycle Kinetics; conditions: for NRAS/KRAS (ratio of KD value with respect to GDP-bound NRAS wild-type protein to KD value with respect to KRAS): SPR KD ratio NRAS/KRAS, class symbols; for NRAS/KRAS (ratio of KD value with respect to NRAS to KD value with respect to KRAS) / NRAS/KRAS (ratio of KD value for NRAS to KD value for KRAS): SPR, GDP-bound NRAS wild-type protein vs GDP-bound KRAS wild-type protein
Chain of GDP-bound NRAS wild-type protein (P01111 whole entry): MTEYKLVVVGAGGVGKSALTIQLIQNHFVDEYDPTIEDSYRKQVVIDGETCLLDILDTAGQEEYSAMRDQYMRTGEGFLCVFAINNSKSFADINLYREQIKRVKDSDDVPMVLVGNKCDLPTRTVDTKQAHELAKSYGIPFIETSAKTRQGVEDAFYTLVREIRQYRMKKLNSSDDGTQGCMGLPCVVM

[3] = target: GDP-bound HRAS wild-type protein (Homo sapiens, UniProt P01112); test: Binding to HRAS by surface plasmon resonance (SPR), Single Cycle Kinetics; conditions: for HRAS/KRAS (ratio of KD value with respect to GDP-bound HRAS wild-type protein to KD value with respect to KRAS): SPR KD ratio HRAS/KRAS, class symbols; for HRAS/KRAS (ratio of KD value with respect to HRAS to KD value with respect to KRAS) / HRAS/KRAS (ratio of KD value for HRAS to KD value for KRAS): SPR, GDP-bound HRAS wild-type protein vs GDP-bound KRAS wild-type protein
Chain of GDP-bound HRAS wild-type protein (P01112 whole entry): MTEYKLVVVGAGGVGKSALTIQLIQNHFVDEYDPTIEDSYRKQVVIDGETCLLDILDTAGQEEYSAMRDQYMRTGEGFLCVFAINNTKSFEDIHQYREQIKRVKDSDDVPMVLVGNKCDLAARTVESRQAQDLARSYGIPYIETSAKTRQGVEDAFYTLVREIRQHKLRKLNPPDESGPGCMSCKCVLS

| Compound | Kd [1] [nM] | NRAS/KRAS (ratio of KD value with respect to GDP-bound NRAS wild-type protein to KD value with respect to KRAS) [2] | HRAS/KRAS (ratio of KD value with respect to GDP-bound HRAS wild-type protein to KD value with respect to KRAS) [3] | NRAS/KRAS (ratio of KD value with respect to NRAS to KD value with respect to KRAS) [2] | HRAS/KRAS (ratio of KD value with respect to HRAS to KD value with respect to KRAS) [3] | NRAS/KRAS (ratio of KD value for NRAS to KD value for KRAS) [2] | HRAS/KRAS (ratio of KD value for HRAS to KD value for KRAS) [3] |
| --- | --- | --- | --- | --- | --- | --- | --- |
| CCC[C@H]1C(=O)N[C@@H]([C@@H](C)CC)C(=O)N(C)CC(=O)N(C)[C@H]2C/C=C\CCN(C2=O)[C@@H](Cc2ccc(C(F)(F)F)cc2)C(=O)N(C)CC(=O)N[C@@H](CCc2ccc(C(F)(F)F)c(Cl)c2)C(=O)N2CCCC[C@H]2C(=O)NC2(CC(C)(C)C2)C(=O)N(C)[C@@H](C(CC)CC)C(=O)N(C)[C@H](C(=O)N(C)C)CC(=O)N1C [PP2928] | 4.8 | AA (a compound having 20 or more is denoted as AA) | A (a compound having 10 or more and less than 20 is denoted as A) | – | – | – | – |
| CC[C@H](C)[C@@H]1NC(=O)[C@H](CC(C)C)N(C)C(=O)C[C@@H](C(=O)N2CCOCC2)N(C)C(=O)[C@H](C2CCCC2)N(C)C(=O)C2(CCC2)NC(=O)[C@@H]2CC(F)(F)CN2C(=O)[C@H](CCc2cc(F)c(C(F)(F)F)c(F)c2)NC(=O)CN(C)C(=O)[C@H](Cc2ccc(C(F)(F)F)cc2)N2CCCCC[C@@H](C2=O)N(C)C(=O)CN(C)C1=O [PP0464] | 0.92 | – | – | B (a compound having 3 or more and less than 10 is denoted as B) | B (a compound having 3 or more and less than 10 is denoted as B) | – | – |
| CCCN1C(=O)CN(C)C(=O)CN(C)C(=O)[C@H]([C@@H](C)CC)NC(=O)[C@H](C2CCC2)N(C)C(=O)C[C@@H](C(=O)N2CCOCC2)N(C)C(=O)[C@H](C2CCCC2)N(C)C(=O)C2(CCCC2)NC(=O)[C@@H]2CC(F)(F)CN2C(=O)[C@H](CCc2ccc(C(F)(F)F)c(Cl)c2)NC(=O)CN(C)C(=O)[C@@H]1Cc1ccc(C(F)(F)F)cc1 [PP0200] ([NMeGly(cBu)]I[Sar][Sar][NPrPhe(4-CF3)][Sar][hPhe(3-Cl-4-CF3)][Pro(4,4-F2)][Ac5c][NMeGly(cPent)][NMeD]-Morpholide; lactam N-11) | 0.22 | – | – | – | – | C (A compound having a KD ratio of 0.1 or more and less than 3 is denoted as C) | C (A compound having a KD ratio of 0.1 or more and less than 3 is denoted as C) |
| CCCN1C(=O)CN(C)C(=O)CN(C)C(=O)[C@H]([C@@H](C)CC)NC(=O)[C@H](CC(C)C)N(C)C(=O)C[C@@H](C(=O)N2CCOCC2)N(C)C(=O)[C@H](C2CCCC2)N(C)C(=O)C2(COC2)NC(=O)[C@@H]2CCCN2C(=O)[C@H](CCc2cc(F)c(C(F)(F)F)c(F)c2)NC(=O)CN(C)C(=O)[C@@H]1Cc1ccc(C(F)(F)F)cc1 [PP0765] ([NMeL]I[Sar][Sar][NPrPhe(4-CF3)][Sar][hPhe(3,5-F2-4-CF3)]P[Ac4c(3-oxa)][NMeGly(cPent)][NMeD]-Morpholide; lactam N-11) | 0.31 | – | – | B (a compound having 3 or more and less than 10 is denoted as B) | C (A compound having a KD ratio of 0.1 or more and less than 3 is denoted as C) | – | – |
| CC[C@H](C)[C@@H]1NC(=O)[C@H](CC(C)C)N(C)C(=O)C[C@@H](C(=O)N2CCOCC2)N(C)C(=O)[C@H](C2CCCC2)N(C)C(=O)C2(CCCC2)NC(=O)[C@@H]2CCCN2C(=O)[C@H](CCc2ccc(C(F)(F)F)c(Cl)c2)NC(=O)CN(CC)C(=O)[C@H](Cc2ccc(C)cc2)N(CC)C(=O)[C@@H]2CCN2C(=O)[C@H](C)N(C)C1=O [PP0006] ([NMeL]I[NMeA][Aze][NEtPhe(4-Me)][NEtG][hPhe(3-Cl-4-CF3)]P[Ac5c][NMeGly(cPent)][NMeD]-Morpholide; lactam N-11) | 1.5 | – | – | – | – | C (A compound having a KD ratio of 0.1 or more and less than 3 is denoted as C) | C (A compound having a KD ratio of 0.1 or more and less than 3 is denoted as C) |
| CCO[C@@H]1C[C@H]2C(=O)NC3(CCCC3)C(=O)N(C)[C@@H](C3CCCC3)C(=O)N(C)[C@H](C(=O)N(C)C)CC(=O)N(C)[C@@H](CC(C)C)C(=O)N[C@@H]([C@@H](C)CC)C(=O)N(C)CC(=O)N(C)[C@H]3C/C=C\CCN(C3=O)[C@@H](Cc3ccc(C(F)(F)F)cc3)C(=O)N(C)CC(=O)N[C@@H](CCc3ccc(C(F)(F)F)c(Cl)c3)C(=O)N2C1 [PP2838] | 0.066 | AA (a compound having 20 or more is denoted as AA) | A (a compound having 10 or more and less than 20 is denoted as A) | – | – | – | – |
